The values below come from US12600716B2 (Gannex Pharma Co., Ltd., priority 2020, dated 2026).

Like-named read-outs stand apart in the source and are kept apart here.

Data set [1] addresses T1, human FXR protein (Homo sapiens, UniProt Q96RI1).
T1 construct: purchased Invitrogen
The data set is described as follows: FXR agonist binding ability: time-resolved fluorescence (LanthaScreen) FXR/coactivator assay. In kind it is biochemical. To be noted: GST-labeled human FXR, fluorescein-labeled coactivator, TR-FRET. As to the method:
FXR Agonist Binding Ability Evaluation of the activation effect of the compound of the present invention with regard to the binding of FXR to its co-stimulatory factor SRC-1 was conducted by using time-resolved analytical techniques. Protein: glutathione-S-transferase (GST)-labeled human FXR protein (Invitrogen) • 2. Coactivator: Fluorescein-labeled steroid receptor coactivator (SRC2-2) (Invitrogen) • 3. Detection reagent: LanthaScreen Time-Resolved Fluorescence Analysis Kit (Invitrogen) • 1. The compound was prepared into a 10 mM DMSO stock solution and stored in a −20° C. refrigerator for a long time. • 2. The compound was diluted to 1 mM before the experiment, and then the compound was diluted 3-fold to 10 concentration points using DMSO. Then use buffer G (Invitrogen, PV4553) to dilute these 10 concentration points by 50 times to become a working fluid. Add 10 μl of each working solution to each well of a 384-well plate. • 3. Prepare a human FXR protein solution (final concentration 20 nM) in chilled buffer G and add 5 μl of human FXR protein solution to each well of a 384-well plate. • 4. Prepare a mix of buffer G containing 2 μM fluorescein-labeled steroid receptor coactivator and 20 nM GST antibody. • 5. Add 5 μl of the mixture prepared in Step 4 to a 384-well plate. • 6. Centrifuge the 384-well plate at 1000 g for 1 minute. • 7. Incubate for 1 hour at room temperature in the dark. • 8. Read the 384-well plate at 520 nm and 495 nm on an Envision 2104 plate reader. • 9. Calculate the EC50 value of the activation effect of the compound.

Data set [2] has as its target T2, hFXR-LBD-GAL4 (Homo sapiens, UniProt Q96RI1).
T2 construct: GAL4 (fusion partner); host or cells: HEK293T
T2 sequence (Q96RI1 262-486 limits assumed): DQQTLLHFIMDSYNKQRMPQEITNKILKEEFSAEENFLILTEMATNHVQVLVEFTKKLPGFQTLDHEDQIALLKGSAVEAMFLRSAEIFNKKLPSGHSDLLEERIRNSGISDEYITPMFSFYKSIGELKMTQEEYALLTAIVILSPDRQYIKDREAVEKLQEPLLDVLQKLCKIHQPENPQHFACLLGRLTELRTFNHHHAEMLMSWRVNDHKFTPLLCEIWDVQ
The data set is described as follows: FXR agonist transactivation ability: luciferase reporter gene in HEK293T. In kind it is cell-based. To be noted: read-out: Cell activity. As to the method: FXR Agonist Transactivation Ability
Evaluation of the ability of the compound of the present invention to promote FXR transactivation was conducted by using luciferase reporter gene expression technology.
• 1. Cell line: HEK293T (Invitrogen) • 2. Expression plasmid: pBIND-hFXR-LBD-GAL4 (Promega), pGL4.35-luciferase (Promega) • 3. Cell culture medium: 10% serum and penicillin/streptomycin double antibody in DMEM medium • 4. Detection reagent: Steady-Glo fluorescence detection system (Promega). • 5. Transfection reagent: TransIT-293 Transfection Reagent (MIRUS BIO)
• 1. The compound was prepared into a 10 mM DMSO stock solution and stored in a −20° C. refrigerator for a long time. • 2. Resuscitation HEK293T cells were seeded in 10 cm culture dishes at a concentration of 5.5×10^6 and incubated for 16 hours at 37° C. in a 5% CO2 incubator. • 3. Return the transfection reagent to room temperature before transfection. The Trans-IT solution was added dropwise to Opti-MEM, and mixed by inversion for 5 minutes; the expression plasmid was added, mixed by inversion, and incubated at room temperature for 20 minutes. • 4. Add the transfection mixture from Step 3 to the prepared 10 cm dish in Step 2 and incubate for 5-6 hours in a 5% CO2 incubator. • 5. Dilute the compound 3 folds to 10 concentration points using DMSO; add 25 nl of compound per well in a 384-well plate using an Echo 550 sonic pipette; add HEK293T cells to the 384-well plate at a concentration of 15,000 cells/well; 37° C. incubate for 16-20 hours in a 5% CO2 incubator. • 6. Add 25 μl of Steady-Glo Fluorescent Reagent to each well and read the fluorescence on an Envision 2104 plate reader. • 7. Calculate the EC50 value of the activation of the compound.
For orientation: In a reporter assay the amount or activity of a reporter protein is the signal.

The nature of data set [3]: Mouse pharmacokinetic studies (IV and PO). The format is in vivo, Male CD-1 mice. To be noted: for PO F: PO 10 mg/kg vs IV 2.0 mg/kg; for Vd / AUC(0-t) / clearance / half-life / Cmax / Tmax: male, CD-1, plasma; for clearance: read-out: IV Cl; for half-life: read-out: IV T½ (converted). As to the method:
Mouse Pharmacokinetic Studies
Typical PK study procedure. For i.v. PK studies, a group of three fasted Male CD-1 mice were dosed with the compound (2.0 mg/kg, 0.50 mg/mL in 5% solutol in saline, clear solution), and 0.02 mL blood was collected at 0.0830, 0.250, 0.500, 1.00, 2.00, 4.00, 8.00, 24.0 h. For PO PK studies, a group of three fasted Male CD-1 mice were dosed with the compound (10 mg/kg, 1 mg/mL in 5% solutol in saline, clear solution), and 0.02 mL blood was collected at 0.250, 0.500, 1.00, 2.00, 4.00, 6.00, 8.00, 24.0 h. The blood was collected into EP tubes (containing EDTA K20.85-1.15 mg) and centrifuged at 3,000 g or 3,200 g at 4° C. for 10 min) and plasma was isolated and divided into two vials. One was used for bioanalysis and one was kept as backup. The samples were kept at −60° C. or below, until being analyzed by LC MS/MS. The samples were analyzed with AB SCIEX INSTRUMENTS LC-MS/MS AU-Triple Quad 6500 Plus and data were processed with Phoenix WinNonlin 6.3 (IV-noncompartmental model and PO-noncompartmental model).

[4] abbreviates: IV 2.0 mg/kg, read-out: IV AUC 0-t.
[5] abbreviates: PO 10 mg/kg, read-out: PO AUC 0-t.

In data set [1], `Cc1nc(Oc2ccc3cc(OCc4c(-c5c(Cl)cccc5Cl)noc4C4CC4)ccc3c2)ccc1C(=O)O` [Compound 10, 6-((6-((5-cyclopropyl-3-(2,6-dichlorophenyl)isoxazol-4-yl)methoxy)naphthalen-2-yl)oxy)-2-methylnicotinic acid] displayed an EC50 of 50 to 500 nM. For the same molecule, the EC50 in data set [2] is less than 200 nM. Further, the “PO F” value in data set [3] was determined as 52.6%. Besides, in data set [3] (IV 2.0 mg/kg), the Vd worked out at 0.66 L/kg, the clearance worked out at 9.26 mL/min/kg and the half-life was 96 min. Moreover, the AUC(0-t) – broadly, exposure summed from dosing to a finite time, without extrapolation to infinity – in data set [3] (setting [4]) stood at 3550 ng·h/mL. Also, in data set [3] (PO 10 mg/kg), the Cmax (in general, the peak of the concentration-time curve) worked out at 5500 ng/mL and the Tmax (commonly the time from dosing to the highest level) was found to be 25 min. Also, the AUC(0-t) in data set [3] (setting [5]) came out at 9360 ng·h/mL.
`O=C(O)c1cccc(Oc2ccc3cc(OCc4c(-c5c(Cl)cccc5Cl)noc4C4CC4)ccc3c2)n1` [Compound 11, 6-((6-((5-cyclopropyl-3-(2,6-dichlorophenyl)isoxazol-4-yl)methoxy)naphthalen-2-yl)oxy)picolinic acid] gave an EC50 in data set [1] of less than 50 nM. Moreover, in data set [2], the EC50 lay within 500 to 1000 nM. Further, in data set [3], the “PO F” value is 33.3%. For the same molecule, in data set [3] (IV 2.0 mg/kg), the Vd worked out at 0.294 L/kg, the clearance is 6.66 mL/min/kg and the half-life was 86.4 min. Besides, the AUC(0-t) in data set [3] (setting [4]) is 4980 ng·h/mL. In data set [3] (PO 10 mg/kg), the concentration peaked (Cmax) at 5730 ng/mL and the Tmax was 30 min. Also, the AUC(0-t) in data set [3] (setting [5]) came to 8330 ng·h/mL.
`O=C(O)c1ccc(Oc2ccc3cc(OCc4c(-c5c(Cl)cccc5Cl)noc4C4CC4)ccc3c2Cl)nc1` [Compound 21, 6-((1-chloro-6-((5-cyclopropyl-3-(2,6-dichlorophenyl)isoxazol-4-yl)methoxy)naphthalen-2-yl)oxy)nicotinic acid] registered an EC50 in data set [1] of 50 to 500 nM. In addition, the EC50 in data set [2] is less than 200 nM. Also, the “PO F” value in data set [3] was determined as 46.2%. In data set [3] (IV 2.0 mg/kg), the Vd is 1.75 L/kg, the clearance came out at 35.8 mL/min/kg and the half-life was 76.8 min. Moreover, the exposure AUC(0-t) in data set [3] (setting [4]) was determined as 969 ng·h/mL. In addition, in data set [3] (PO 10 mg/kg), the Cmax came out at 1480 ng/mL and the Tmax stood at 30 min. For the same molecule, the AUC(0-t) in data set [3] (setting [5]) worked out at 2220 ng·h/mL.
For the molecule `O=C(O)c1cccnc1Oc1cccc2cc(OCc3c(-c4c(Cl)cccc4Cl)noc3C3CC3)ccc12` [Compound 35, 2-((6((5-cyclopropyl-3-(2,6-dichlorophenyl)isoxazol-4-yl)methoxy)naphthalen-1-yl)oxy)nicotinic acid], the EC50 is less than 50 nM in data set [1] and less than 200 nM in data set [2].
Consider `O=C(O)c1ccc(Oc2ccc3c(OCc4c(-c5c(Cl)cccc5Cl)noc4C4CC4)cccc3c2)nc1` [Compound 36, 6-((5-((5-cyclopropyl-3-(2,6-dichlorophenyl)isoxazol-4-yl)methoxy)naphthalen-2-yl)oxy)nicotinic acid], for which the values for the EC50 in data set [1] and in data set [2] were 50 to 500 nM and greater than 1000 nM, respectively.
Take `Cc1nc(Oc2ccc3c(F)c(OCc4c(-c5c(Cl)cccc5Cl)noc4C4CC4)ccc3c2)ccc1C(=O)O` [Compound 37, 6-((6-((5-cyclopropyl-3-(2,6-dichlorophenyl)isoxazol-4-yl)methoxy)-5-fluoronaphthalen-2-yl)oxy)-2-methylnicotinic acid]: the EC50 is 50 to 500 nM in data set [1] and greater than 1000 nM in data set [2].
Turning to `O=C(O)c1ccc(Oc2ccc3ccc(OCc4c(-c5c(Cl)cccc5Cl)noc4C4CC4)c(F)c3c2)nc1` [Compound 38, 6-((7-((5-cyclopropyl-3-(2,6-dichlorophenyl)isoxazol-4-yl)methoxy)-8-fluoronaphthalen-2-yl)oxy)nicotinic acid], the EC50 in data set [1] was less than 50 nM; in data set [2], 500 to 1000 nM.
Take `Cc1nc(Oc2cccc3c(F)c(OCc4c(-c5c(Cl)cccc5Cl)noc4C4CC4)ccc23)ccc1C(=O)O` [Compound 39, 6-((6-((5-cyclopropyl-3-(2,6-dichlorophenyl)isoxazol-4-yl)methoxy)-5-fluoronaphthalen-1-yl)oxy)-2-methylnicotinic acid]: the results for the EC50 in data set [1] and in data set [2] were less than 50 nM and less than 200 nM, respectively.
As to `O=C(O)c1ccc(Oc2c(Cl)cc(Cl)c3cc(OCc4c(-c5c(Cl)cccc5Cl)noc4C4CC4)ccc23)nc1` [Compound 41, 6-((2,4-dichloro-6-((5-cyclopropyl-3-(2,6-dichlorophenyl)isoxazol-4-yl)methoxy)naphthalen-1-yl)oxy)nicotinic acid], the EC50 in data set [1] was greater than 500 nM; in data set [2], greater than 1000 nM.
`O=C(O)c1ccc(Oc2c(Cl)ccc3cc(OCc4c(-c5c(Cl)cccc5Cl)noc4C4CC4)ccc23)nc1` [Compound 42, 6-((2-chloro-6-((5-cyclopropyl-3-(2,6-dichlorophenyl)isoxazol-4-yl)methoxy)naphthalen-1-yl)oxy)nicotinic acid]: the values for the EC50 in data set [1] and in data set [2] were greater than 500 nM and greater than 1000 nM, respectively.
Regarding `Cc1nc(Oc2ccc3cc(OCc4c(-c5c(Cl)cccc5Cl)noc4C4CC4)ccc3c2Cl)ccc1C(=O)O` [Compound 43, 6-((1-chloro-6-((5-cyclopropyl-3-(2,6-dichlorophenyl)isoxazol-4-yl)methoxy)naphthalen-2-yl)oxy)-2-methylnicotinic acid], the EC50 in data set [1] is 50 to 500 nM; in data set [2], 500 to 1000 nM.
Taken in the same sequence, the figures for `Cc1nc(Oc2c(Cl)ccc3cc(OCc4c(-c5c(Cl)cccc5Cl)noc4C4CC4)ccc23)ccc1C(=O)O` [Compound 46, 6((2-chloro-6 ((5-cyclopropyl-3-(2,6-dichlorophenyl)isoxazol-4-yl)methoxy)naphthalen-1-yl)oxy)-2-methylnicotinic acid] were 50 to 500 nM and less than 200 nM.
Consider `O=C(O)c1cccnc1Oc1c(F)ccc2cc(OCc3c(-c4c(Cl)cccc4Cl)noc3C3CC3)ccc12` [Compound 48, 2-((6-((5-cyclopropyl-3-(2,6-dichlorophenyl)isoxazol-4-yl)methoxy)-2-fluoronaphthalen-1-yl)oxy)nicotinic acid], for which the EC50 in data set [1] was less than 50 nM; in data set [2] it was less than 200 nM.
Taken in the same sequence, the figures for `O=C(O)c1c(F)cccc1Oc1cccc2cc(OCc3c(-c4c(Cl)cccc4Cl)noc3C3CC3)ccc12` [Compound 49] were 50 to 500 nM and greater than 1000 nM.
